Reference: ChEMBL document CHEMBL1201862, “PubChem BioAssay data set” (2004)
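Results reflect a 48-hour exposure of cells in 96-well plates to compound at five concentrations. Abbreviation: GI50, concentration required for 50% inhibition of growth.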 The source made the active and inactive calls. Rule as the data show it: active = GI50 up to about 1.1 µM and inactive = higher.

Columns and labels:
Assay in all cases: growth of human tumour cells (NCI), 48 h
COLO 205 = tested on: COLO 205
OVCAR-4 = tested on: OVCAR-4
SK-MEL-5 = tested on: SK-MEL-5
OVCAR-3 = tested on: OVCAR-3
HL-60 = tested on: HL-60
SR = tested on: SR
ACHN = tested on: ACHN
UACC-257 = tested on: UACC-257
SW-620 = tested on: SW-620
HCT-15 = tested on: HCT-15
786-0 = tested on: 786-0
SF-268 = tested on: SF-268
A549 = tested on: A549
DLD-1 = tested on: DLD-1
CAKI-1 = tested on: CAKI-1
SNB-78 = tested on: SNB-78
RXF 393 = tested on: RXF 393
A498 = tested on: A498
HOP-92 = tested on: HOP-92
UO-31 = tested on: UO-31
KM-20L2 = tested on: KM-20L2
LXFL 529 = tested on: LXFL 529
UACC-62 = tested on: UACC-62
NCI-H460 = tested on: NCI-H460
Malme-3M = tested on: Malme-3M
CCRF-CEM = tested on: CCRF-CEM
HOP-62 = tested on: HOP-62
SNB-19 = tested on: SNB-19
TK-10 = tested on: TK-10
SK-MEL-2 = tested on: SK-MEL-2
SNB-75 = tested on: SNB-75
SF-295 = tested on: SF-295
KM12 = tested on: KM12
HCT-116 = tested on: HCT-116
SK-OV-3 = tested on: SK-OV-3
XF498 = tested on: XF498
MOLT-4 = tested on: MOLT-4
M14 = tested on: M14
U-251 = tested on: U-251
NCI-H522 = tested on: NCI-H522
DMS-273 = tested on: DMS-273
SF-539 = tested on: SF-539
HT-29 = tested on: HT-29
HOP-18 = tested on: HOP-18
IGROV-1 = tested on: IGROV-1
SK-MEL-28 = tested on: SK-MEL-28
OVCAR-8 = tested on: OVCAR-8
LOX IMVI = tested on: LOX IMVI
SN12C = tested on: SN12C
RXF 631 = tested on: RXF 631
DMS-114 = tested on: DMS-114
NCI-H23 = tested on: NCI-H23
OVCAR-5 = tested on: OVCAR-5
EKVX = tested on: EKVX
HCC 2998 = tested on: HCC 2998
M19-MEL = tested on: M19-MEL
K562 = tested on: K562
RPMI-8226 = tested on: RPMI-8226
NCI-H226 = tested on: NCI-H226

CC(C)(C)/N=C/N1C=Cc2nc3ccccc3cc2C1
GI50 (COLO 205): 36.9 µM (inactive) | GI50 (OVCAR-4): > 100 µM (inactive) | GI50 (SK-MEL-5): > 100 µM (inactive) | GI50 (OVCAR-3): > 100 µM (inactive) | GI50 (HL-60): 75.7 µM (inactive) | GI50 (SR): > 100 µM (inactive) | GI50 (ACHN): > 100 µM (inactive) | GI50 (UACC-257): > 100 µM (inactive) | GI50 (SW-620): 19.5 µM (inactive) | GI50 (HCT-15): 57.1 µM | GI50 (786-0): > 100 µM (inactive) | GI50 (SF-268): > 100 µM (inactive) | GI50 (A549): > 100 µM (inactive) | GI50 (DLD-1): 34.1 µM (inactive) | GI50 (CAKI-1): > 100 µM (inactive) | GI50 (SNB-78): > 100 µM (inactive) | GI50 (RXF 393): > 100 µM (inactive) | GI50 (A498): > 100 µM (inactive) | GI50 (HOP-92): > 100 µM (inactive) | GI50 (UO-31): > 100 µM (inactive) | GI50 (KM-20L2): > 100 µM (inactive) | GI50 (LXFL 529): > 100 µM (inactive) | GI50 (UACC-62): > 100 µM (inactive) | GI50 (NCI-H460): 32.6 µM (inactive) | GI50 (Malme-3M): > 100 µM (inactive) | GI50 (CCRF-CEM): > 100 µM (inactive) | GI50 (HOP-62): > 100 µM (inactive) | GI50 (SNB-19): > 100 µM (inactive) | GI50 (TK-10): > 100 µM (inactive) | GI50 (SK-MEL-2): > 100 µM (inactive) | GI50 (SNB-75): > 100 µM (inactive) | GI50 (SF-295): > 100 µM (inactive) | GI50 (KM12): > 100 µM (inactive) | GI50 (HCT-116): > 100 µM (inactive) | GI50 (SK-OV-3): > 100 µM (inactive) | GI50 (XF498): > 100 µM (inactive) | GI50 (MOLT-4): > 100 µM (inactive) | GI50 (M14): > 100 µM (inactive) | GI50 (U-251): > 100 µM (inactive) | GI50 (NCI-H522): > 100 µM (inactive) | GI50 (DMS-273): > 100 µM (inactive) | GI50 (SF-539): > 100 µM (inactive) | GI50 (HT-29): > 100 µM (inactive) | GI50 (HOP-18): > 100 µM (inactive) | GI50 (IGROV-1): > 100 µM (inactive) | GI50 (SK-MEL-28): > 100 µM (inactive) | GI50 (OVCAR-8): > 100 µM (inactive) | GI50 (LOX IMVI): 26.7 µM (inactive) | GI50 (SN12C): > 100 µM (inactive) | GI50 (RXF 631): > 100 µM (inactive) | GI50 (DMS-114): > 100 µM (inactive) | GI50 (NCI-H23): > 100 µM (inactive) | GI50 (OVCAR-5): > 100 µM (inactive) | GI50 (EKVX): > 100 µM (inactive) | GI50 (HCC 2998): > 100 µM (inactive) | GI50 (M19-MEL): > 100 µM (inactive) | GI50 (K562): > 100 µM (inactive)

BrC12C3C4C5C(C(C43)C13OCCO3)C52 (configuration not stated)
GI50 (COLO 205): > 100 µM (inactive) | GI50 (SK-MEL-5): > 100 µM (inactive) | GI50 (OVCAR-3): > 100 µM (inactive) | GI50 (HL-60): > 100 µM (inactive) | GI50 (ACHN): > 100 µM (inactive) | GI50 (UACC-257): > 100 µM (inactive) | GI50 (SW-620): > 100 µM (inactive) | GI50 (786-0): > 100 µM (inactive) | GI50 (SF-268): > 100 µM (inactive) | GI50 (A549): > 100 µM (inactive) | GI50 (DLD-1): > 100 µM (inactive) | GI50 (SNB-78): > 100 µM (inactive) | GI50 (RXF 393): > 100 µM (inactive) | GI50 (A498): > 100 µM (inactive) | GI50 (HOP-92): 58.1 µM (inactive) | GI50 (UO-31): > 100 µM (inactive) | GI50 (RPMI-8226): > 100 µM (inactive) | GI50 (KM-20L2): > 100 µM (inactive) | GI50 (LXFL 529): > 100 µM (inactive) | GI50 (NCI-H460): > 100 µM (inactive) | GI50 (Malme-3M): > 100 µM (inactive) | GI50 (CCRF-CEM): > 100 µM (inactive) | GI50 (HOP-62): > 100 µM (inactive) | GI50 (SNB-19): > 100 µM (inactive) | GI50 (TK-10): > 100 µM (inactive) | GI50 (SK-MEL-2): > 100 µM (inactive) | GI50 (SNB-75): > 100 µM (inactive) | GI50 (SF-295): > 100 µM (inactive) | GI50 (KM12): > 100 µM (inactive) | GI50 (HCT-116): > 100 µM (inactive) | GI50 (SK-OV-3): > 100 µM (inactive) | GI50 (XF498): 60.4 µM (inactive) | GI50 (MOLT-4): > 100 µM (inactive) | GI50 (U-251): > 100 µM (inactive) | GI50 (NCI-H522): > 100 µM (inactive) | GI50 (DMS-273): > 100 µM (inactive) | GI50 (SF-539): > 100 µM (inactive) | GI50 (HT-29): > 100 µM (inactive) | GI50 (HOP-18): 8.55 µM (inactive) | GI50 (IGROV-1): > 100 µM (inactive) | GI50 (SK-MEL-28): > 100 µM (inactive) | GI50 (OVCAR-8): > 100 µM (inactive) | GI50 (LOX IMVI): > 100 µM (inactive) | GI50 (RXF 631): > 100 µM (inactive) | GI50 (DMS-114): > 100 µM (inactive) | GI50 (NCI-H23): > 100 µM (inactive) | GI50 (OVCAR-5): > 100 µM (inactive) | GI50 (EKVX): > 100 µM (inactive) | GI50 (HCC 2998): > 100 µM (inactive) | GI50 (M19-MEL): > 100 µM (inactive) | GI50 (K562): > 100 µM (inactive)

Cc1ccccc1/C=C/c1csnn1
GI50 (COLO 205): > 100 µM (inactive) | GI50 (OVCAR-4): > 100 µM (inactive) | GI50 (SK-MEL-5): > 100 µM (inactive) | GI50 (OVCAR-3): > 100 µM (inactive) | GI50 (HL-60): 21.1 µM (inactive) | GI50 (SR): > 100 µM (inactive) | GI50 (ACHN): > 100 µM (inactive) | GI50 (NCI-H226): > 100 µM (inactive) | GI50 (UACC-257): > 100 µM (inactive) | GI50 (SW-620): > 56.4 µM (inactive) | GI50 (HCT-15): > 42.2 µM | GI50 (786-0): > 100 µM (inactive) | GI50 (SF-268): > 46.2 µM (inactive) | GI50 (A549): > 57.3 µM (inactive) | GI50 (DLD-1): > 49.5 µM (inactive) | GI50 (CAKI-1): > 100 µM (inactive) | GI50 (SNB-78): > 100 µM (inactive) | GI50 (RXF 393): > 100 µM (inactive) | GI50 (A498): > 100 µM (inactive) | GI50 (HOP-92): > 100 µM (inactive) | GI50 (UO-31): > 100 µM (inactive) | GI50 (RPMI-8226): 33.4 µM (inactive) | GI50 (KM-20L2): > 100 µM (inactive) | GI50 (LXFL 529): > 100 µM (inactive) | GI50 (UACC-62): > 100 µM (inactive) | GI50 (NCI-H460): > 47.3 µM (inactive) | GI50 (Malme-3M): > 100 µM (inactive) | GI50 (CCRF-CEM): 60.3 µM (inactive) | GI50 (HOP-62): > 100 µM (inactive) | GI50 (SNB-19): > 100 µM (inactive) | GI50 (TK-10): > 100 µM (inactive) | GI50 (SK-MEL-2): > 100 µM (inactive) | GI50 (SNB-75): > 100 µM (inactive) | GI50 (SF-295): > 100 µM (inactive) | GI50 (KM12): > 100 µM (inactive) | GI50 (HCT-116): > 44 µM (inactive) | GI50 (SK-OV-3): > 100 µM (inactive) | GI50 (XF498): > 100 µM (inactive) | GI50 (MOLT-4): > 100 µM (inactive) | GI50 (M14): > 100 µM (inactive) | GI50 (U-251): > 100 µM (inactive) | GI50 (NCI-H522): > 100 µM (inactive) | GI50 (DMS-273): > 100 µM (inactive) | GI50 (SF-539): > 100 µM (inactive) | GI50 (HT-29): > 100 µM (inactive) | GI50 (HOP-18): > 100 µM (inactive) | GI50 (IGROV-1): > 100 µM (inactive) | GI50 (SK-MEL-28): > 100 µM (inactive) | GI50 (OVCAR-8): > 100 µM (inactive) | GI50 (LOX IMVI): > 58.7 µM (inactive) | GI50 (SN12C): > 100 µM (inactive) | GI50 (RXF 631): > 100 µM (inactive) | GI50 (DMS-114): > 40.6 µM (inactive) | GI50 (NCI-H23): > 100 µM (inactive) | GI50 (OVCAR-5): > 100 µM (inactive) | GI50 (EKVX): > 100 µM (inactive) | GI50 (HCC 2998): > 100 µM (inactive) | GI50 (M19-MEL): > 80.5 µM (inactive) | GI50 (K562): > 100 µM (inactive)
